The source made the active and inactive calls. How the calls were made is not given here.

The values that follow come from PubChem BioAssay AID1259407 (Chemical Carcinogenesis Research Information System (CCRIS), 2018).

This data set concerns CCRIS mutagenicity, Ames/micronucleus/aberration tests. Briefly: CCRIS mutagenicity studies.
[1] abbreviates: Test System: AMES SALMONELLA TYPHIMURIUM, Strain/Indicator: TA98, Metabolic Activation: NONE, Method: STANDARD PLATE.
Where [2] appears, read: Test System: AMES SALMONELLA TYPHIMURIUM, Strain/Indicator: TA100, Metabolic Activation: NONE, Method: STANDARD PLATE.
Setting [3] is: Test System: AMES SALMONELLA TYPHIMURIUM, Strain/Indicator: TA98, Metabolic Activation: RAT, LIVER, S-9, AROCLOR 1254, Method: STANDARD PLATE.
The mark [4] stands for this setting: Test System: AMES SALMONELLA TYPHIMURIUM, Strain/Indicator: TA100, Metabolic Activation: RAT, LIVER, S-9, AROCLOR 1254, Method: STANDARD PLATE.

As for `CCc1ccc(/C=C/c2ccc(N)cc2)cc1`, the mutagenic call runs as follows: under setting [1], “inactive; negative”; (Test System: AMES SALMONELLA TYPHIMURIUM, Strain/Indicator: TA98, Metabolic Activation: RAT LIVER S9, AROCLOR, Method: STANDARD PLATE) “active; positive”; under setting [2], “inactive; negative”; (Test System: AMES SALMONELLA TYPHIMURIUM, Strain/Indicator: TA100, Metabolic Activation: RAT, LIVER, S9, AROCLOR, Method: STANDARD PLATE) “active; positive”.

Regarding `Fc1cc2cccnc2c2cccnc12`, the mutagenic call (Test System: AMES SALMONELLA TYPHIMURIUM, Strain/Indicator: TA100, Metabolic Activation: RAT, LIVER, S-9, PHENOBARBITAL AND 5,6-BENZOFLAVONE, Method: PREINCUBATION) was “active; positive”.

With `CC(C)(O)CCc1ccc(O)c2c(=O)c3c(O)c4c(cc3oc12)O[C@H]1OC=C[C@@H]41`, the mutagenic call by setting is: under setting [1], “active; positive”; under setting [3], “active; positive”; under setting [2], “active; positive”; under setting [4], “active; positive”.

In the case of `CC(C)(C)C(=O)C(Oc1ccc(Cl)cc1)n1ccnc1` (configuration not stated), the mutagenic call is, setting by setting: (Test System: AMES SALMONELLA TYPHIMURIUM, Strain/Indicator: TA98, Metabolic Activation: NONE, Method: PREINCUBATION) “inactive; negative”; (Test System: AMES SALMONELLA TYPHIMURIUM, Strain/Indicator: TA98, Metabolic Activation: RAT, LIVER, S-9, PCB, Method: PREINCUBATION) “inactive; negative”; (Test System: AMES SALMONELLA TYPHIMURIUM, Strain/Indicator: TA100, Metabolic Activation: NONE, Method: PREINCUBATION) “inactive; negative”; (Test System: AMES SALMONELLA TYPHIMURIUM, Strain/Indicator: TA100, Metabolic Activation: RAT, LIVER, S-9, PCB, Method: PREINCUBATION) “inactive; negative”; (Test System: AMES SALMONELLA TYPHIMURIUM, Strain/Indicator: TA1535, Metabolic Activation: NONE, Method: PREINCUBATION) “inactive; negative”; (Test System: AMES SALMONELLA TYPHIMURIUM, Strain/Indicator: TA1535, Metabolic Activation: RAT, LIVER, S-9, PCB, Method: PREINCUBATION) “inactive; negative”. Moreover, the mutagenic call runs as follows: (Test System: AMES SALMONELLA TYPHIMURIUM, Strain/Indicator: TA1537, Metabolic Activation: NONE, Method: PREINCUBATION) “inactive; negative”; (Test System: AMES SALMONELLA TYPHIMURIUM, Strain/Indicator: TA1537, Metabolic Activation: RAT, LIVER, S-9, PCB, Method: PREINCUBATION) “inactive; negative”; (Test System: AMES SALMONELLA TYPHIMURIUM, Strain/Indicator: TA1538, Metabolic Activation: NONE, Method: PREINCUBATION) “inactive; negative”; (Test System: AMES SALMONELLA TYPHIMURIUM, Strain/Indicator: TA1538, Metabolic Activation: RAT, LIVER, S-9, PCB, Method: PREINCUBATION) “inactive; negative”; (Test System: Ames Salmonella typhimurium, Strain/Indicator: TA98, Metabolic Activation: None, Method: Plate incorporation) “inactive; negative”; (Test System: Ames Salmonella typhimurium, Strain/Indicator: TA98, Metabolic Activation: None, Method: Preincubation) “inactive; negative”. The mutagenic call runs as follows: (Test System: Ames Salmonella typhimurium, Strain/Indicator: TA98, Metabolic Activation: Rat, Liver, S-9, Aroclor, Method: Plate incorporation) “inactive; negative”; (Test System: Ames Salmonella typhimurium, Strain/Indicator: TA98, Metabolic Activation: Rat, Liver, S-9, Aroclor, Method: Preincubation) “inactive; negative”; (Test System: Ames Salmonella typhimurium, Strain/Indicator: TA100, Metabolic Activation: None, Method: Plate incorporation) “inactive; negative”; (Test System: Ames Salmonella typhimurium, Strain/Indicator: TA100, Metabolic Activation: None, Method: Preincubation) “inactive; negative”; (Test System: Ames Salmonella typhimurium, Strain/Indicator: TA100, Metabolic Activation: Rat, Liver, S-9, Aroclor, Method: Plate incorporation) “inactive; negative”; (Test System: Ames Salmonella typhimurium, Strain/Indicator: TA100, Metabolic Activation: Rat, Liver, S-9, Aroclor, Method: Preincubation) “inactive; negative”. Moreover, the mutagenic call (Test System: Ames Salmonella typhimurium, Strain/Indicator: TA1535, Metabolic Activation: None, Method: Plate incorporation) was “inactive; negative”; the mutagenic call (Test System: Ames Salmonella typhimurium, Strain/Indicator: TA1535, Metabolic Activation: None, Method: Preincubation) is “inactive; negative”; the mutagenic call (Test System: Ames Salmonella typhimurium, Strain/Indicator: TA1535, Metabolic Activation: Rat, Liver, S-9, Aroclor, Method: Plate incorporation) was “inactive; negative”; the mutagenic call (Test System: Ames Salmonella typhimurium, Strain/Indicator: TA1535, Metabolic Activation: Rat, Liver, S-9, Aroclor, Method: Preincubation) was “inactive; negative”; the mutagenic call (Test System: Ames Salmonella typhimurium, Strain/Indicator: TA1537, Metabolic Activation: None, Method: Plate incorporation) is “inactive; negative”; the mutagenic call (Test System: Ames Salmonella typhimurium, Strain/Indicator: TA1537, Metabolic Activation: None, Method: Preincubation) is “inactive; negative”. Moreover, the mutagenic call reads like this: (Test System: Ames Salmonella typhimurium, Strain/Indicator: TA1537, Metabolic Activation: Rat, Liver, S-9, Aroclor, Method: Plate incorporation) “inactive; negative”; (Test System: Ames Salmonella typhimurium, Strain/Indicator: TA1537, Metabolic Activation: Rat, Liver, S-9, Aroclor, Method: Preincubation) “inactive; negative”; (Test System: E. COLI, Strain/Indicator: WP2 UVRA, Metabolic Activation: NONE, Method: PREINCUBATION) “inactive; negative”; (Test System: E. coli, Strain/Indicator: WP2uvrA (pKM101), Metabolic Activation: None, Method: Plate incorporation) “inactive; negative”; (Test System: E. coli, Strain/Indicator: WP2uvrA (pKM101), Metabolic Activation: None, Method: Preincubation) “inactive; negative”; (Test System: E. coli, Strain/Indicator: WP2uvrA (pKM101), Metabolic Activation: Rat, Liver, S-9, Aroclor, Method: Plate incorporation) “inactive; negative”. Also, the mutagenic call was “inactive; negative” (Test System: E. coli, Strain/Indicator: WP2uvrA (pKM101), Metabolic Activation: Rat, Liver, S-9, Aroclor, Method: Preincubation); “inactive; negative” (Test System: In vitro micronucleus, Strain/Indicator: Human lymphocytes, Metabolic Activation: None); “inactive; negative” (Test System: In vivo micronucleus, Species: Mouse, Strain/Sex: ICR/Male, Route: Oral (gavage)); “inactive; negative” (Test System: Mouse lymphoma L5178Y/TK+/- cells, Strain/Indicator: WP2 uvrA (pKM101), Metabolic Activation: Rat, Liver, S-9, Aroclor 1254, Method: Suspension/plate); “active; positive” (Test System: UDS Rat hepatocytes, Strain/Indicator: Thymidine incorporation, Method: In vivo - in vitro, measurement by autoradiography).

On to `O=C(O)c1cccc2cccnc12`, for which the mutagenic call reads like this: under setting [1], “inactive; negative”; under setting [3], “inactive; negative”; under setting [2], “inactive; negative”; under setting [4], “inactive; negative”; (Test System: AMES SALMONELLA TYPHIMURIUM, Strain/Indicator: TA1535, Metabolic Activation: NONE, Method: STANDARD PLATE) “inactive; negative”; (Test System: AMES SALMONELLA TYPHIMURIUM, Strain/Indicator: TA1535, Metabolic Activation: RAT, LIVER, S-9, AROCLOR 1254, Method: STANDARD PLATE) “inactive; negative”. The mutagenic call (Test System: AMES SALMONELLA TYPHIMURIUM, Strain/Indicator: TA1537, Metabolic Activation: NONE, Method: STANDARD PLATE) was “inactive; negative” and the mutagenic call (Test System: AMES SALMONELLA TYPHIMURIUM, Strain/Indicator: TA1537, Metabolic Activation: RAT, LIVER, S-9, AROCLOR 1254, Method: STANDARD PLATE) is “inactive; negative”.
